Experimental data reported in ChEMBL document CHEMBL1128142, “2-aryl-indolyl maleimides - novel and potent inhibitors of protein kinase C” (Bioorg Med Chem Lett, 1995).

Assays:
MCF7 = experiment: Inhibition of adriamycin-resistant breast tumor line MCF-7/ADR-RE proliferation; format: functional; settings: Homo sapiens
MDA-N = experiment: Inhibition of breast tumor lines(MDA-N) proliferation; format: functional; settings: Homo sapiens
[1] = biological target: Protein kinase C beta type (Homo sapiens, UniProt P05771); experiment: Inhibition of protein kinase C beta
[2] = biological target: T1, Protein kinase C epsilon type (Homo sapiens, UniProt Q02156); experiment: Inhibition of Protein kinase C epsilon
T1 sequence (Q02156 whole entry): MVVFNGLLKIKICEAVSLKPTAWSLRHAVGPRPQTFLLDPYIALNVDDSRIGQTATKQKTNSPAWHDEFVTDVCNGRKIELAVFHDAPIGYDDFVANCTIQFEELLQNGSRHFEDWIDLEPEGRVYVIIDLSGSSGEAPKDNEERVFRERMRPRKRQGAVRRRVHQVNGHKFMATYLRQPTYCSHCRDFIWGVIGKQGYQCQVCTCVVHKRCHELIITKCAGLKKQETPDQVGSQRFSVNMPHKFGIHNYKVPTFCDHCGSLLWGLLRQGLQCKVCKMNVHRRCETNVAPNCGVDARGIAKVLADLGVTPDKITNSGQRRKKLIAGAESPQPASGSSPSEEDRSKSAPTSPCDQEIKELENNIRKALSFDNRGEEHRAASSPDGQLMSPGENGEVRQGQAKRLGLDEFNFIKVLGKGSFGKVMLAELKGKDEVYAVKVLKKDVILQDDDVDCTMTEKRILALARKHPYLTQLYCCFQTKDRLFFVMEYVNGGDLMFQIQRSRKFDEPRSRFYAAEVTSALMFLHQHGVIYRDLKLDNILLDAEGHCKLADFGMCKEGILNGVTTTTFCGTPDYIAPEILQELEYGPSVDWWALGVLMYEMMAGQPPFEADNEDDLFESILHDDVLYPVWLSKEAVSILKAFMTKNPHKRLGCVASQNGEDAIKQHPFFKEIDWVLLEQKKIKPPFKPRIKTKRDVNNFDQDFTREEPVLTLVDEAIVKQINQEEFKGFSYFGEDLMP

Sequence of Protein kinase C beta type (P05771 whole entry): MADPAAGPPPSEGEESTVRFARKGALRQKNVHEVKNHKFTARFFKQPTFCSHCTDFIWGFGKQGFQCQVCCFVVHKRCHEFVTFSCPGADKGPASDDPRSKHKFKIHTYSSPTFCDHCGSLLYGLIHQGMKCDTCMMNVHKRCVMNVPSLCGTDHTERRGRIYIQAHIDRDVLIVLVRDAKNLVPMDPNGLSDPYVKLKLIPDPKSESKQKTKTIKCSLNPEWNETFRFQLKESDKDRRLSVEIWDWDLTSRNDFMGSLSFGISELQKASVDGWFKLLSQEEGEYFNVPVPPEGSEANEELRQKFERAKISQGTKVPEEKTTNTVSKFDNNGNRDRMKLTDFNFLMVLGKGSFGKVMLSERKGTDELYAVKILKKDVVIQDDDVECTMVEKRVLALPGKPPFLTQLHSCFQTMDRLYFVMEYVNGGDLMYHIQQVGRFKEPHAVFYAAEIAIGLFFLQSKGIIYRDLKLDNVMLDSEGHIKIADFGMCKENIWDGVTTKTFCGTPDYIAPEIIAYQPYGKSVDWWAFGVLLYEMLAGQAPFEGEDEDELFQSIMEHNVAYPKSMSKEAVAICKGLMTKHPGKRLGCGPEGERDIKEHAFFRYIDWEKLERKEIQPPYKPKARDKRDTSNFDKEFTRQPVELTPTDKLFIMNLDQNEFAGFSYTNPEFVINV

Row | GI50 (MCF7) | IC50 [1] | IC50 [2] | Structure (SMILES) | GI50 (MDA-N)
1 | 20 nM | – | – | N=C(N)SCCCn1cc(C2=CC(=O)NC2=O)c2ccccc21 | –
2 | 20 nM | 3 nM | 10 nM | N=C(N)SCCCn1c(-c2cc3ccccc3s2)c(C2=CC(=O)NC2=O)c2ccccc21 | < 10 nM
3 | 100 nM | – | – | CN(C)CCCn1c(-c2cc3ccccc3s2)c(C2=CC(=O)NC2=O)c2ccccc21 | –
